Test results published in ChEMBL document CHEMBL1127534, “2-Alkynyl derivatives of adenosine-5'-N-ethyluronamide: selective A2 adenosine receptor agonists with potent inhibitory activity on platelet aggregation” (J Med Chem, 1994).

Assays:
Adenosine receptor A1 [1] = biological target: T1, Adenosine receptor A1 (Rattus norvegicus, UniProt P25099); test: Negative chronotropic activity for A1 Adenosine receptor in spontaneously beating rat atria; format: functional
T1 sequence (P25099 whole entry): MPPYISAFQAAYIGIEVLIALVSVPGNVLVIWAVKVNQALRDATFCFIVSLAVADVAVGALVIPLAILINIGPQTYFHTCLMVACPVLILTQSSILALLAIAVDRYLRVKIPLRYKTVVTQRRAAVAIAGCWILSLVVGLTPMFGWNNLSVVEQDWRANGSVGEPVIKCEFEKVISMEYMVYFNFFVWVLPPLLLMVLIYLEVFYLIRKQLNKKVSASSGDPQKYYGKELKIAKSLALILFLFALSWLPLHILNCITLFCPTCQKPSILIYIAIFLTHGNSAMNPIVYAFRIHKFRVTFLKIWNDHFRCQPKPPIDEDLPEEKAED

[2] = Hydrophobicity index (k') (RP-HPLC); format: ADME
Oryctolagus cuniculus = species on record: Oryctolagus cuniculus; test: Antiaggregatory effect was evaluated on rabbit platelet aggregation induced by ADP.; format: functional
Adenosine A2 receptor [3] = biological target: T2, Adenosine A2 receptor (Rattus norvegicus, UniProt P29276+P30543)
Description: Affinity for the adenosine A2 receptor was evaluated in a competition assay in rat striatum using [3H]-CGS- 21680 as radioligand

Adenosine receptor A1 [4] = biological target: T1, Adenosine receptor A1; test: biochemical
Description: Affinity for adenosine A1 receptor assayed in a competition assay in rat brain using [3H]-CHA as radioligand

Adenosine A2 receptor [5] = biological target: T2, Adenosine A2 receptor; test: Vasorelaxant activity for A2 Adenosine receptor as vasodilation in rat aorta
Adenosine receptor A1 [6] = biological target: T1, Adenosine receptor A1; test: Negative chronotropic activity via A1 Adenosine receptor was tested in spontaneously beating rat atria; format: functional
Adenosine A2 receptor [7] = biological target: T2, Adenosine A2 receptor; remark: listed apart in the source
Description: Negative chronotropic activity via A2 Adenosine receptor was tested monitoring vasodilation in rat aorta

Adenosine A2 receptor [8] = biological target: T2, Adenosine A2 receptor; test: Affinity for A2 Adenosine receptor in rat striatum using [3H]-CGS- 21680; format: tissue-based
Adenosine receptor A1 [9] = biological target: T1, Adenosine receptor A1; test: Affinity for A1 Adenosine receptor in rat brain using [3H]CHA; format: tissue-based

| SMILES | EC50 (Adenosine receptor A1 [1]) [nM] | k' [2] | Ki (Adenosine A2 receptor [3]) [nM] | Ki (Adenosine receptor A1 [4]) [nM] | EC50 (Adenosine A2 receptor [5]) [nM] | EC50 (Adenosine receptor A1 [6]) [nM] | EC50 (Adenosine A2 receptor [7]) [nM] | Ki (Adenosine A2 receptor [8]) [nM] | Ki (Adenosine receptor A1 [9]) [nM] | Ratio (Oryctolagus cuniculus) |
| --- | --- | --- | --- | --- | --- | --- | --- | --- | --- | --- |
| CCNC(=O)[C@H]1O[C@@H](n2cnc3c(N)nc(C#CCCOC4CCCCO4)nc32)[C@H](O)[C@@H]1O (stereo partly specified) | > 10000 | 1.32 | 5 | 267 | 115 | – | – | – | – | 0.3 |
| CCCCC#Cc1nc(N)c2ncn([C@@H]3O[C@H](C(=O)NCC)[C@@H](O)[C@H]3O)c2n1 | – | 2.57 | 2.2 | 130 | – | > 10000 | 596 | – | – | – |
| CCNC(=O)[C@H]1O[C@@H](n2cnc3c(N)nc(C#CCCCC#N)nc32)[C@H](O)[C@@H]1O | – | 0.32 | 4.7 | 184 | – | 2370 | 111 | – | – | – |
| CCNC(=O)[C@H]1O[C@@H](n2cnc3c(N)nc(C#CC(O)CC)nc32)[C@H](O)[C@@H]1O (stereo partly specified) | – | 0.42 | – | – | – | 153 | 69.3 | 12.4 | 20.4 | – |
| CCNC(=O)[C@H]1O[C@@H](n2cnc3c(N)nc(C#CC4CCCCC4)nc32)[C@H](O)[C@@H]1O | – | 4.54 | 9.2 | 236 | – | > 10000 | 329 | – | – | – |
| OC[C@H]1O[C@@H](n2cnc3c(NC4CCCC4)nc(Cl)nc32)[C@H](O)[C@@H]1O | – | 2.76 | – | – | – | – | – | – | – | – |
| CCNC(=O)[C@H]1O[C@@H](n2cnc3c(N)nc(C#CCCCO)nc32)[C@H](O)[C@@H]1O | – | 0.22 | 11.3 | 99.9 | – | > 10000 | 300 | – | – | – |
| CCNC(=O)[C@H]1O[C@@H](n2cnc3c(N)ncnc32)[C@H](O)[C@@H]1O [NECA] | – | 0.19 | – | – | – | – | – | – | – | – |
| CCNC(=O)[C@H]1O[C@@H](n2cnc3c(N)nc(C#CC(OCC)OCC)nc32)[C@H](O)[C@@H]1O | – | 1.63 | 441 | 656 | – | > 10000 | 382 | – | – | – |
| CCNC(=O)[C@H]1O[C@@H](n2cnc3c(N)nc(C#CC4(N)CCCCC4)nc32)[C@H](O)[C@@H]1O | > 10000 | 0.6 | 39.4 | 398 | 779 | – | – | – | – | 0.6 |
| CCNC(=O)[C@H]1O[C@@H](n2cnc3c(N)nc(C#CCC(C)O)nc32)[C@H](O)[C@@H]1O (stereo partly specified) | – | 0.29 | 56.4 | 69.6 | – | 6050 | 1650 | – | – | – |
| CCNC(=O)[C@H]1O[C@@H](n2cnc3c(N)nc(C#CC4=CCCCC4)nc32)[C@H](O)[C@@H]1O | > 10000 | 3.9 | 61.3 | 3300 | 3030 | – | – | – | – | 0.03 |
| CCNC(=O)[C@H]1O[C@@H](n2cnc3c(N)nc(C#CCN)nc32)[C@H](O)[C@@H]1O | – | 0.15 | 38.3 | 48.6 | – | 730 | 564 | – | – | – |
| C=C(C)C#Cc1nc(N)c2ncn([C@@H]3O[C@H](C(=O)NCC)[C@@H](O)[C@H]3O)c2n1 | – | 1.27 | 27.3 | 167 | – | > 10000 | 1200 | – | – | – |

Second part, led by results:

| EC50 (Adenosine receptor A1 [1]) [nM] | k' [2] | Ki (Adenosine A2 receptor [3]) [nM] | Ki (Adenosine receptor A1 [4]) [nM] | EC50 (Adenosine A2 receptor [5]) [nM] | EC50 (Adenosine receptor A1 [6]) [nM] | EC50 (Adenosine A2 receptor [7]) [nM] | Ki (Adenosine A2 receptor [8]) [nM] | Ki (Adenosine receptor A1 [9]) [nM] | SMILES | Ratio (Oryctolagus cuniculus) |
| --- | --- | --- | --- | --- | --- | --- | --- | --- | --- | --- |
| – | 1.35 | 1 | 37.9 | – | 2520 | 715 | – | – | CCNC(=O)[C@H]1O[C@@H](n2cnc3c(N)nc(C#CCCCCl)nc32)[C@H](O)[C@@H]1O | – |
| – | 0.82 | 0.9 | 2.5 | – | 110 | 123 | – | – | CCNC(=O)[C@H]1O[C@@H](n2cnc3c(N)nc(C#CC(O)c4ccccc4)nc32)[C@H](O)[C@@H]1O (stereo partly specified) | – |
| – | 0.23 | 7.6 | 11.1 | – | 657 | 828 | – | – | CCNC(=O)[C@H]1O[C@@H](n2cnc3c(N)nc(C#CC(C)O)nc32)[C@H](O)[C@@H]1O (stereo partly specified) | – |
| – | 1.32 | 1.7 | 32.7 | – | 2430 | 456 | – | – | CCNC(=O)[C@H]1O[C@@H](n2cnc3c(N)nc(C#CC(C)(O)c4ccccc4)nc32)[C@H](O)[C@@H]1O (stereo partly specified) | – |
| – | 0.17 | 9.1 | 14.1 | – | 84.2 | 367 | – | – | CCNC(=O)[C@H]1O[C@@H](n2cnc3c(N)nc(C#CCO)nc32)[C@H](O)[C@@H]1O | – |
| – | 1.84 | 0.5 | 3 | – | > 10000 | 338 | – | – | CCNC(=O)[C@H]1O[C@@H](n2cnc3c(N)nc(C#CC(C)(O)CC(C)C)nc32)[C@H](O)[C@@H]1O (stereo partly specified) | – |
| – | 0.37 | 2.3 | 27.9 | – | 332 | 140 | – | – | CCNC(=O)[C@H]1O[C@@H](n2cnc3c(N)nc(C#CCN(C)C)nc32)[C@H](O)[C@@H]1O | – |
| 475 | 0.77 | 0.6 | 4 | 159 | – | – | – | – | CCNC(=O)[C@H]1O[C@@H](n2cnc3c(N)nc(C#CC4(O)CCCC4)nc32)[C@H](O)[C@@H]1O | 5.3 |
| – | 0.25 | 57.8 | 35.4 | – | 167 | 440 | – | – | C#Cc1nc(N)c2ncn([C@@H]3O[C@H](C(=O)NCC)[C@@H](O)[C@H]3O)c2n1 | – |
| – | 0.2 | 10.8 | 47.3 | – | > 10000 | 59.4 | – | – | CCNC(=O)[C@H]1O[C@@H](n2cnc3c(N)nc(C#CCCO)nc32)[C@H](O)[C@@H]1O | – |
| – | 0.35 | 6.8 | 42.1 | – | > 10000 | 391 | – | – | CCNC(=O)[C@H]1O[C@@H](n2cnc3c(N)nc(C#CCCCCO)nc32)[C@H](O)[C@@H]1O | – |
